Measurements as given in ChEMBL document CHEMBL1201862, “PubChem BioAssay data set” (2004).
Calls of active or inactive are those of the source.

What was measured:
BJ [1] = experiment: BJ-TERT fibroblast viability loss – cell-based, RAS-independent, luminescence, dose response (AID 1933); assay type: functional; conditions: Homo sapiens
BJ [2] = experiment: cells; assay type: functional, cell-based; conditions: Homo sapiens
BJ [3] = experiment: BJ-TERT-LT-ST fibroblast viability loss – cell-based, RAS-independent, luminescence, dose response (AID 1935); assay type: functional; conditions: Homo sapiens;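 also: BJ fibroblasts immortalized with TERT plus LT and ST oncogenes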
[4] = DRD fibroblast viability loss – cell-based, non-viral oncogenic, luminescence, dose response (AID 1934); assay type: functional; conditions: Homo sapiens
[5] = HEK-293T viability loss after treatment – luminescence, T-cell screen hits, cytotoxicity control for TCR NF-kB inhibitor project, dose response (AID 489026); assay type: functional, cell-based;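 also: cells exposed to compound about 14 hours before the viability readout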
INS1 = experiment: INS-1E survival protection against cytokine death – cell-based, luminescence, retest, dose response (AID 449756); assay type: functional; conditions: Rattus norvegicus;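 also: cell death triggered by IL-1 beta plus TNF-alpha plus IFN-gamma mixture; protective hits raise ATP signal compared with cytokine alone wells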
[6] = reduction of Shn3 3'UTR-driven luciferase in osteoblasts – cell-based, Clone20 osteoblasts, firefly luciferase, cherry-picked, dose response (AID 624132); assay type: functional;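 also: firefly luciferase luminescence from reporter carrying the Shn3 3'UTR in osteoblasts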
[7] = loss of viability in HepG2 cells – cell-based, CellTiter-Glo, cherry-picked, cytotoxicity control for Shn3 inhibitor project, dose response (AID 624134); assay type: functional
[8] = non-specific 3'UTR reporter inhibition in Clone20-Shn3RL – cell-based, Renilla luciferase, cherry-picked, counter-screen for Shn3 inhibitor project, dose response (AID 624133); assay type: functional
Galanin receptor type 3 = biological target: T1, Galanin receptor type 3 (Homo sapiens, UniProt O60755); experiment: Fluorescence-based cell-based primary high throughput dose response assay to identify antagonists of the Galanin Receptor 3 (GalR3).; assay type: functional
T1 sequence (O60755 whole entry): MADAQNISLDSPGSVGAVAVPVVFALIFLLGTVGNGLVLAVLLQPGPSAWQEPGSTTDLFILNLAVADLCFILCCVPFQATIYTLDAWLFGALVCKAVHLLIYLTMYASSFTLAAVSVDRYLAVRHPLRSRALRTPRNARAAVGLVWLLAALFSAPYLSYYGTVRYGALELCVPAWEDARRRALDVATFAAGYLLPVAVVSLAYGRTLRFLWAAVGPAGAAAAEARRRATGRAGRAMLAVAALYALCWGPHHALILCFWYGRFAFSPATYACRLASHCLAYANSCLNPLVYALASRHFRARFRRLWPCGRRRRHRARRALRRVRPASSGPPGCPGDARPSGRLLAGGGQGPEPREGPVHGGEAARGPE

cells [9] = assay type: functional, cell-based; conditions: HEK-CNG
[10] = Trypanosoma cruzi growth suppression in host cells – NIH3T3 host cells, beta-gal luminescence, confirmation (AID 2044); assay type: functional, cell-based;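 also: intracellular parasites grown in NIH/3T3 mouse fibroblasts as host cells; luminescent beta-galactosidase reporter signal from transgenic T. cruzi replicating inside host cells; inhibitors lower the luminescence signal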
[11] = NIH3T3 cell viability loss – ATP luminescence, mouse fibroblasts, counter-screen, dose response (AID 2010); assay type: functional, cell-based;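 also: cells exposed to compound for about 90 hours before reading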
[12] = biological target: Photoreceptor-specific nuclear receptor (Homo sapiens, UniProt Q9Y5X4); assay type: functional, cell-based;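 also: CHO-S cells with Gal4-NCOR and VP16-NR2E3 two-hybrid luciferase reporter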
Sequence of Photoreceptor-specific nuclear receptor (Q9Y5X4 whole entry, the tested form may be a part): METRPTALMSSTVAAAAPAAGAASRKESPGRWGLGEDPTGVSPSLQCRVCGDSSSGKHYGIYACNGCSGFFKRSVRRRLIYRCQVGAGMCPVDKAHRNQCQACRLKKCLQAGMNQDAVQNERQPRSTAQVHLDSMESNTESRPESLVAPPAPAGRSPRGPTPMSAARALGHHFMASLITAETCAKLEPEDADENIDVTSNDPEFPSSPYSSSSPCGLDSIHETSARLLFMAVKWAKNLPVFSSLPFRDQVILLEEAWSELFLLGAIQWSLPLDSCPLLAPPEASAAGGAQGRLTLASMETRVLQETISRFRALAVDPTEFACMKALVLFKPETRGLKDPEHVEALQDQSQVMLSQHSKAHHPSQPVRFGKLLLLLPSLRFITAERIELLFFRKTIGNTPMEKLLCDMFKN

[13] = viability of uninfected HEp-2 cells – cell-based, HTS, cytotoxicity control for RSV inhibitor project, dose response (AID 2410); assay type: functional; conditions: human respiratory syncytial virus
[14] = biological target: T2, Low molecular weight phosphotyrosine protein phosphatase (Homo sapiens, UniProt P24666); assay type: functional; conditions: read-out: IC50_Mean
T2 sequence (P24666 whole entry): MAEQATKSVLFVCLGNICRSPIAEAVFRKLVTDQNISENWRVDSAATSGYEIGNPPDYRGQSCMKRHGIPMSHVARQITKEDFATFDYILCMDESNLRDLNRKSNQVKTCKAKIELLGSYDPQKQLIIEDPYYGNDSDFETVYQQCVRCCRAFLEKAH

[15] = biological target: T2, Low molecular weight phosphotyrosine protein phosphatase; assay type: functional; conditions: read-out: IC50_Mean; remark: listed apart in the source
cells [16] = experiment: cells
Aminopeptidase N = biological target: T3, Aminopeptidase N (Plasmodium falciparum FcB1/Columbia, UniProt O96935); experiment: malaria alanyl aminopeptidase activity blockers – biochemical, fluorogenic H-Leu-NHMec substrate, 1536-well (AID 1445); set-up: species or system Plasmodium falciparum 3D7, 3D7
T3 sequence (O96935 whole entry): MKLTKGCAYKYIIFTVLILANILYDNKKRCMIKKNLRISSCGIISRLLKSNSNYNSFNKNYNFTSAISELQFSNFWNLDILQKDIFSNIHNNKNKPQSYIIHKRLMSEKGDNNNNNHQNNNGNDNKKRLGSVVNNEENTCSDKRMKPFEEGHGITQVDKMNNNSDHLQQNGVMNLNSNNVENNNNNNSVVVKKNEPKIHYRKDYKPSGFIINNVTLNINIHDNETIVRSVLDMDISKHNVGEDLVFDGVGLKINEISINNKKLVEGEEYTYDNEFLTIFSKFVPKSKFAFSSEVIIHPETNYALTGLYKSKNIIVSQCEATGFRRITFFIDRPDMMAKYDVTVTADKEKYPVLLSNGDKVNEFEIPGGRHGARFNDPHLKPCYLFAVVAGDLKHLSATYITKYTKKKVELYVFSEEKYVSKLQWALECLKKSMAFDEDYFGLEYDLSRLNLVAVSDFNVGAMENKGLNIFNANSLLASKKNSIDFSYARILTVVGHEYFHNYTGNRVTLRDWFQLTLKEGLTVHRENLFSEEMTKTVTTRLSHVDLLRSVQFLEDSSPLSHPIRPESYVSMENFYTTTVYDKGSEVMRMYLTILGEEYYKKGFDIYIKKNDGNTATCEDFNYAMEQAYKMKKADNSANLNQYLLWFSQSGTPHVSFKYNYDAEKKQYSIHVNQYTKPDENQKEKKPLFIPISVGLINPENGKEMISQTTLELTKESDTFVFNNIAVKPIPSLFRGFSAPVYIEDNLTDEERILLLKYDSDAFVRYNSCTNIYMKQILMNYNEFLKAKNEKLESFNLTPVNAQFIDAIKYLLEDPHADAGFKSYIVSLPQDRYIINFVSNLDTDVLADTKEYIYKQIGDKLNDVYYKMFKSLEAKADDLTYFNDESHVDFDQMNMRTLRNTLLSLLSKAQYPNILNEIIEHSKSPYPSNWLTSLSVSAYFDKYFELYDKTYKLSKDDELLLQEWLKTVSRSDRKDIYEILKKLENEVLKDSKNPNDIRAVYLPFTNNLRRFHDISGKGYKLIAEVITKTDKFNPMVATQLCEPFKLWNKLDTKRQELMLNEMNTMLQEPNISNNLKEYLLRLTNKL

[17] = biological target: T4, High affinity choline transporter 1 (Homo sapiens, UniProt Q9GZV3); experiment: human choline transporter blockers, potency – cell-based, 5-point CRC, membrane potential dye, dose response (AID 504840); assay type: functional
T4 sequence (Q9GZV3 whole entry): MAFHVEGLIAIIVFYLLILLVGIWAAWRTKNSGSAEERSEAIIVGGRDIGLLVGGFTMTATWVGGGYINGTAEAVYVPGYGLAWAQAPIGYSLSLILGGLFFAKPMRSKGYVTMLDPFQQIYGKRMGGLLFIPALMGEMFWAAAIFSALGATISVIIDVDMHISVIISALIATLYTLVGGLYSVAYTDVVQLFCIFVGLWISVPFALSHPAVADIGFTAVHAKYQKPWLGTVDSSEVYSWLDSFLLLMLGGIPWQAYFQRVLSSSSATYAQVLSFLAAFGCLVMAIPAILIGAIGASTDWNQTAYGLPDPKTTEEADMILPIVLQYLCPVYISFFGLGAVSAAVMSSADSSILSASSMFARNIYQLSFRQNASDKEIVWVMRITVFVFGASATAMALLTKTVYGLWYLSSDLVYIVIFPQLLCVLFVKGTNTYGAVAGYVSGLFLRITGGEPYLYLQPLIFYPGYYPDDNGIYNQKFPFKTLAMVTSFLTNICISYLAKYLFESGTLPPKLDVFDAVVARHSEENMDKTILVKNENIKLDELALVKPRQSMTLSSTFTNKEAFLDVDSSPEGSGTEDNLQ

[18] = biological target: T5, Corticotropin-releasing factor receptor 2/Corticotropin-releasing factor-binding protein (Homo sapiens, UniProt P24387+Q13324); experiment: Dose Response confirmation of uHTS hits for small molecule antagonists of the CRF-binding protein and CRF-R2 receptor complex.; assay type: functional; conditions: read-out: IC50_Mean
T5 sequence (Q13324 whole entry): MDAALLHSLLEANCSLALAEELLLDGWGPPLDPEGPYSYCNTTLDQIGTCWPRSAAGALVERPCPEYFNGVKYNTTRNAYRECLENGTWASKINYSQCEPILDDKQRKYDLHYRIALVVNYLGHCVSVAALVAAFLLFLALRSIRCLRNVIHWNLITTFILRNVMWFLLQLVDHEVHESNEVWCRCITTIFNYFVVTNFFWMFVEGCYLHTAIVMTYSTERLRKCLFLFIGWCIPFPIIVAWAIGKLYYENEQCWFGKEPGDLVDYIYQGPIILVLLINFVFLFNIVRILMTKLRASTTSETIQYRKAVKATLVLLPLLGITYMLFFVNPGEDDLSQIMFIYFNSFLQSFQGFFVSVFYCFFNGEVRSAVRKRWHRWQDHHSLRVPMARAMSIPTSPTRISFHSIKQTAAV
T5 sequence (P24387 whole entry): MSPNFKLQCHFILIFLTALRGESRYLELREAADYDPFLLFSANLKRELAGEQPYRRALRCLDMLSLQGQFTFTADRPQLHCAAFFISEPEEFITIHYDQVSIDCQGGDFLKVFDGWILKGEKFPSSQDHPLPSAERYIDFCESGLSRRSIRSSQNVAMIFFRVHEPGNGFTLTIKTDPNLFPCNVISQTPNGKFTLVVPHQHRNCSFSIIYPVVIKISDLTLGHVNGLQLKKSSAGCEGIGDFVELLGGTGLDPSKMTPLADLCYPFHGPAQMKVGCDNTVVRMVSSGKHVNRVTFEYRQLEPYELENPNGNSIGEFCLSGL

[19] = biological target: T5, Corticotropin-releasing factor receptor 2/Corticotropin-releasing factor-binding protein; experiment: activators of CRF receptor 2 with binding protein – uHTS hits, confirmation (AID 602473); assay type: functional; conditions: read-out: EC50_Mean
[20] = blockers of CRF-binding protein–CRF-R2 complex – cell-based, uHTS hits, 384-well, dose response (AID 651639); assay type: functional, Homo sapiens; conditions: read-out: IC50_Mean
[21] = biological target: T6, COUP transcription factor 2 (Homo sapiens, UniProt P24468); experiment: Luminescence-based cell-based high throughput dose response assay to identify inhibitors of COUP-TFII (NR2F2).; assay type: functional;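 also: HEK293 cells transiently cotransfected with COUP-TFII expression vector and reporter; luciferase reporter luminescence driven by COUP-TFII from the pX2-168 reporter plasmid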
T6 sequence (P24468 whole entry): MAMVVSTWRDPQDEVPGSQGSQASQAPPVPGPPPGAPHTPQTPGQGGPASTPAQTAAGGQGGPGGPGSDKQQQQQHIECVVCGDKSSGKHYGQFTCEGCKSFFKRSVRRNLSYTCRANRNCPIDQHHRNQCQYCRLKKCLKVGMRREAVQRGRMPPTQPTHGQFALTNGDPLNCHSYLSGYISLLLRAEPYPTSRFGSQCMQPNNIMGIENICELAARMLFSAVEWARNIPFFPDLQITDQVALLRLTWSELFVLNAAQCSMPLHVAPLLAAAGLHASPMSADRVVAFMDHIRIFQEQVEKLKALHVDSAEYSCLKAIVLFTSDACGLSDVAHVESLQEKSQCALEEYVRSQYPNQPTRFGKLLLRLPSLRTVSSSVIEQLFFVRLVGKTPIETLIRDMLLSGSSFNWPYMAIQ

[22] = biological target: Nuclear receptor subfamily 5 group A member 2 (Homo sapiens, UniProt O00482); assay type: functional, cell-based;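 also: HEK293T cells transfected with LRH-1 and a StAR promoter luciferase reporter; potency for inhibitors that lower LRH-1 driven reporter light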
Sequence of Nuclear receptor subfamily 5 group A member 2 (O00482 whole entry): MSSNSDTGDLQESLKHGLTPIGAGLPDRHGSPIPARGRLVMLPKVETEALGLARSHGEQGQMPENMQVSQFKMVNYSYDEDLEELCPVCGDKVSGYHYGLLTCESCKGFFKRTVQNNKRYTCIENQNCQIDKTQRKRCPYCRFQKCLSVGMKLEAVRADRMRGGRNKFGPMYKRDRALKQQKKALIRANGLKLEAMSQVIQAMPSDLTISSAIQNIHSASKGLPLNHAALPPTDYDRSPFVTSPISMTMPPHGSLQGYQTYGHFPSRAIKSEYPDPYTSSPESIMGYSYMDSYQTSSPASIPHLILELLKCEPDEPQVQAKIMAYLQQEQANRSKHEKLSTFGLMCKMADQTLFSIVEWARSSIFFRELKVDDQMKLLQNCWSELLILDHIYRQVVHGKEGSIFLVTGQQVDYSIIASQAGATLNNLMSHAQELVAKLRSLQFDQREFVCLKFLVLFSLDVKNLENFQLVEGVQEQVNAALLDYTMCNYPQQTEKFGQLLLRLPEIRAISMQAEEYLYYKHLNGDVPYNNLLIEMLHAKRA

Steroidogenic factor 1 = Steroidogenic factor 1 (Homo sapiens, UniProt Q13285); experiment: Counterscreen for inverse agonists of the liver receptor homolog-1 (LRH-1; NR5A2): Luminescence-based cell-based high throughput dose response assay to identify inverse agonists of the Steroidogenic Factor 1 Nuclear Receptor (SF1; NR5A1).; assay type: functional
Sequence of Steroidogenic factor 1 (Q13285 whole entry): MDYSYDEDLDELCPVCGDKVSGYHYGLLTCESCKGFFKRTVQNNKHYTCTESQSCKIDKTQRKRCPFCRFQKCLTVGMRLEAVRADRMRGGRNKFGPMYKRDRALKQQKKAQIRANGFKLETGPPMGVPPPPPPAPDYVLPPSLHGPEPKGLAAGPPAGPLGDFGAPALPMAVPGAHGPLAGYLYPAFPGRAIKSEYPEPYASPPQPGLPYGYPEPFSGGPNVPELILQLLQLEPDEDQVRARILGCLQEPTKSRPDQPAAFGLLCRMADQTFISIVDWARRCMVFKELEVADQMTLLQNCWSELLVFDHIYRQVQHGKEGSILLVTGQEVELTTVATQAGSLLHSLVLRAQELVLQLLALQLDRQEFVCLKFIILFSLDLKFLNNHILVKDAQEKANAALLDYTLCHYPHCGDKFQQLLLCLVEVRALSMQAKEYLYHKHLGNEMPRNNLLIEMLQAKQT

[23] = nonselective StAR promoter luciferase inhibitors – cell-based, luminescence, luciferase reporter, counter-screen for LRH-1 inverse agonist project, dose response (AID 651969); assay type: functional
cells [24] = assay type: functional, cell-based
cells [25] = assay type: functional, cell-based; remark: listed apart in the source

## O=S(=O)(c1ccc2c(c1)OCCO2)N1CCN(c2ncnc3sccc23)CC1
BJ [1]
  EC50: > 150 µM (not active)
BJ [2]
  EC50: > 150 µM (not active)
BJ [3]
  EC50: > 150 µM (not active)
[4]
  EC50: > 150 µM (not active)
[5]
  IC50: > 80 µM (inactive)
INS1
  AC50: 3.37 µM (active)
[6]
  AC50: 1.45 µM (active)
[7]
  AC50: 3.21 µM (active)
[8]
  AC50: 29.6 µM (active)
Galanin receptor type 3
  IC50: 2.06 µM (active)
Cells [9]
  EC50: > 29.9 µM (inactive)

## Cc1nn(Cc2cccc(F)c2)c(C)c1NC(=O)c1ccc(COc2ccccc2Cl)cc1
[10]
  EC50: 1.26 µM (active)
[11]
  EC50: 40.4 µM (active)
[12]
  IC50: 2.85 µM (active)

## O=C(O)c1cccc(NC(=O)c2cn(-c3ccccc3)nc2-c2cc3ccccc3o2)c1
[13]
  CC50: 33 µM (active)
[14]
  IC50: 43 µM (inactive)
[15]
  IC50: 18 µM (active)
Cells [16]
  IC50: 20.9 µM (active)

## O=C(Nc1cc(S(=O)(=O)N2CCCCC2)ccc1O)c1ccccc1NS(=O)(=O)c1ccc(F)c(F)c1
Aminopeptidase N
  IC50: 69.4 µM (active)
[17]
  IC50: 12.6 µM (active)
[18]
  IC50: 5.71 µM (active)
[19]
  EC50: 7.48 µM (active)
[20]
  IC50: > 20 µM (inactive)

## O=C(Nc1cccc(NC(=O)c2c(F)cccc2F)n1)c1c(F)cccc1F
[12]
  IC50: 2.98 µM (active)

## COC(=O)C1CCCCN1C(=O)c1cc(COc2cccc3cnccc23)on1 (centres undefined)
INS1
  AC50: 3.68 µM (active)
Galanin receptor type 3
  IC50: 1.48 µM (active)
Cells [9]
  EC50: > 29.9 µM (inactive)
[21]
  IC50: 7.34 µM (active)

## O=C(COC(=O)c1ccc(Br)cc1)Nc1ccccc1Br
[22]
  IC50: 35.9 µM (inactive)
Steroidogenic factor 1
  IC50: 35.9 µM (inactive)
[23]
  IC50: 35.9 µM (inactive)

## COc1cc2c(cc1OC)C1C(=O)c3ccc4c(c3OC1CO2)CC(C(C)C)O4 (centres undefined)
[6]
  AC50: < 0.26 µM (active)
[7]
  AC50: 0.614 µM (active)
[8]
  AC50: 5.08 µM (active)
Galanin receptor type 3
  IC50: 0.0386 µM (active)
Cells [9]
  EC50: > 29.9 µM (inactive)
[21]
  IC50: 0.519 µM (active)

## O=C(N[C@H](C(=O)N1CCC[C@H]1C(=O)NCCc1ccccc1Cl)C1CCCCC1)c1cccs1
Cells [24]
  IC50: > 29.9 µM (inactive)
Cells [25]
  EC50: > 29.9 µM (inactive)
